Test system: HiBiT-HSD17β13 fusion protein (N-terminal HiBiT-tagged HSD17β13 isoform D) in Huh7 HiBiT-HSD17β13 OE cells
Test: Whole-cell Huh7-HSD17B13 HiBiT assay (degrader potency and maximal efficacy, luminescence readout)
Format: cell-based, human
Settings: 24 hour incubation, geometric mean, * = geometric mean for all forms tested (parent and salt forms); for DC50: read-out: Huh7_HIBIT-HSD17β13_DC50 GMean DC50; for Huh7_HIBIT-HSD17β13_DC50 GMean Asymptote Maximum: max. concentration 1 μM
How it was run: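 Luminescence from lytic HiBiT detection tracked residual HiBiT-HSD17β13 (isoform D, N-terminal tag) in a stable Huh7 overexpressing clone after 24 h compound treatment at 37° C, 11 concentrations up to 1 μM final. Percent effect used DMSO (zero) and parental Huh7 (high) wells; four-parameter fit gave 50% degradation; viability checked by CellTiter-Glo.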

DC50	SMILES	Huh7_HIBIT-HSD17β13_DC50 GMean Asymptote Maximum
0.5 nM	Cn1c(=O)n(C2CCC(=O)NC2=O)c2ccc(CN3CCN(c4ncc(-c5ccc6cn([C@]78CC[C@](CNC(=O)c9cc(F)c(O)c(F)c9F)(CC7)CC8)nc6c5)cn4)CC3)cc21 (mixture of isomers) [Example 83, N-{[4-(6-{2-[4-({1-[(3RS)-2,6-dioxopiperidin-3-yl]-3-methyl-2-oxo-2,3-dihydro-1H-benzimidazol-5-yl}methyl)piperazin-1-yl]pyrimidin-5-yl}-2H-indazol-2-yl)bicyclo[2.2.2]octan-1-yl]methyl}-2,3,5-trifluoro-4-hydroxybenzamide]	81%
0.59 nM	Cn1c(=O)n(C2CCC(=O)NC2=O)c2ccc(CN3CCN(c4ncc(-c5ccn6cc([C@]78CC[C@](CNC(=O)c9cc(F)c(O)c(F)c9F)(CC7)CC8)nc6c5)cn4)CC3)cc21 (mixture of isomers) [Example 84, N-{[4-(7-{2-[4-({1-[(3RS)-2,6-dioxopiperidin-3-yl]-3-methyl-2-oxo-2,3-dihydro-1H-benzimidazol-5-yl}methyl)piperazin-1-yl]pyrimidin-5-yl}imidazo[1,2-a]pyridin-2-yl)bicyclo[2.2.2]octan-1-yl]methyl}-2,3,5-trifluoro-4-hydroxybenzamide]	83%
0.86 nM	Cn1c(=O)n(C2CCC(=O)NC2=O)c2ccc(CCCN3C[C@@H]4CN(c5ccc6cn([C@H]7CC[C@H](CNC(=O)c8cc(F)c(O)c(F)c8F)CC7)nc6c5)C[C@@H]4C3)cc21 (mixture of isomers) [Example 85, N-{[(1r,4r)-4-{6-[(3aR,6aS)-5-(3-{1-[(3RS)-2,6-dioxopiperidin-3-yl]-3-methyl-2-oxo-2,3-dihydro-1H-benzimidazol-5-yl}propyl)hexahydropyrrolo[3,4-c]pyrrol-2(1H)-yl]-2H-indazol-2-yl}cyclohexyl]methyl}-2,3,5-trifluoro-4-hydroxybenzamide]	73%
0.27 nM	Cn1c(=O)n(C2CCC(=O)NC2=O)c2ccc(CCCN3Cc4cnc(-c5ccc6cn([C@H]7CC[C@H](CNC(=O)c8cc(F)c(O)c(F)c8F)CC7)nc6c5)nc4C3)cc21 (mixture of isomers) [Example 86, N-{[(1r,4r)-4-{6-[6-(3-{1-[(3RS)-2,6-dioxopiperidin-3-yl]-3-methyl-2-oxo-2,3-dihydro-1H-benzimidazol-5-yl}propyl)-6,7-dihydro-5H-pyrrolo[3,4-d]pyrimidin-2-yl]-2H-indazol-2-yl}cyclohexyl]methyl}-2,3,5-trifluoro-4-hydroxybenzamide]	78%
0.5 nM	Cn1c(=O)n(C2CCC(=O)NC2=O)c2ccc(CCCN3CCc4nc(-c5ccc6cn([C@H]7CC[C@H](CNC(=O)c8cc(F)c(O)c(F)c8F)CC7)nc6c5)ncc4C3)cc21 (mixture of isomers) [Example 87, N-{[(1r,4r)-4-{6-[6-(3-{1-[(3RS)-2,6-dioxopiperidin-3-yl]-3-methyl-2-oxo-2,3-dihydro-1H-benzimidazol-5-yl}propyl)-5,6,7,8-tetrahydropyrido[4,3-d]pyrimidin-2-yl]-2H-indazol-2-yl}cyclohexyl]methyl}-2,3,5-trifluoro-4-hydroxybenzamide]	78%
1.5 nM	Cn1c(=O)n(C2CCC(=O)NC2=O)c2ccc(CCCN3CCc4cc(-c5ccc6cn([C@H]7CC[C@H](CNC(=O)c8cc(F)c(O)c(F)c8F)CC7)nc6c5)ncc4C3)cc21 (mixture of isomers) [Example 88, N-{[(1r,4r)-4-{6-[7-(3-{1-[(3RS)-2,6-dioxopiperidin-3-yl]-3-methyl-2-oxo-2,3-dihydro-1H-benzimidazol-5-yl}propyl)-5,6,7,8-tetrahydro-2,7-naphthyridin-3-yl]-2H-indazol-2-yl}cyclohexyl]methyl}-2,3,5-trifluoro-4-hydroxybenzamide]	81%

From patent US20240238425A1, “HSD17B13 Inhibitors and/or Degraders” (Pfizer Inc., priority 2022, published 2024)
